Measured values from patent US20140155410A1 (GlaxoSmithKline LLC, priority 2008, published 2014).

Legend:
GST-tagged FAK = molecular target: T1, GST-tagged FAK (Homo sapiens, UniProt Q05397); test: Biochemical assay for FAK activity, Assay 1: phosphorylation of peptide substrate with radio-labeled ATP; conditions: 5 μM ATP, 30 min pre-incubation; for IC50: read-out: Assay 1 FAK TRF PXC50 (converted)
T1 construct: purchased Invitrogen PV3832
Description: GST-tagged (glutathione S-transferase-tagged) FAK was purchased from Invitrogen (PV3832) (www.invitrogen.com). […] To measure inhibitors of FAK, compounds were first prepared as a 10× stock in 10% DMSO. […] A 6-nM GST-FAK solution was prepared in 1.1× reaction buffer containing 44 mM HEPES, pH=7.2, 11 mM MgCl2, 2.2 mM MnCl2, 1.1 mM DTT and 0.011% Tween-20. Then, 20 μL of the 6 nM GST-FAK solution were pre-incubated with the compounds for 30 min at room temperature. […] The reaction was allowed to proceed for 90 min before being quenched with 40 μL of 1% H3PO4. A portion of the reaction mixture (60 μL) was transferred to a phospho-cellulose filter plate (Millipore; www.millipore.com, MAPHNOB50) and incubated for 20 minutes. The plate was filtrated, washed three times using 150 μL of 0.5% H3PO4 and dried at 50° C. for 30 min. After the addition of 60 μL Microscint-20 to the plate, radioactivity was measured using a TopCount (PerkinElmer; www.PerkinElmer.com).

[1] = molecular target: T2, Full length Human FAK (Flag-His-TEV-FAK1) (Homo sapiens, UniProt Q05397); test: Biochemical assay for FAK activity, Assay 2: LANCE Ultra ULight peptide phosphorylation, 665 nm/615 nm ratio; conditions: Flag-His-TEV-FAK1, 10 μM ATP, 30 min pre-incubation; for IC50: read-out: Assay 2 FAK H 31284A TRF PXC50 (converted)
T2 construct: Full length Human FAK was expressed using baculovirus in Sf9 cells; made in house; host or cells: baculovirus in Sf9 cells
T2 sequence (Q05397 whole entry): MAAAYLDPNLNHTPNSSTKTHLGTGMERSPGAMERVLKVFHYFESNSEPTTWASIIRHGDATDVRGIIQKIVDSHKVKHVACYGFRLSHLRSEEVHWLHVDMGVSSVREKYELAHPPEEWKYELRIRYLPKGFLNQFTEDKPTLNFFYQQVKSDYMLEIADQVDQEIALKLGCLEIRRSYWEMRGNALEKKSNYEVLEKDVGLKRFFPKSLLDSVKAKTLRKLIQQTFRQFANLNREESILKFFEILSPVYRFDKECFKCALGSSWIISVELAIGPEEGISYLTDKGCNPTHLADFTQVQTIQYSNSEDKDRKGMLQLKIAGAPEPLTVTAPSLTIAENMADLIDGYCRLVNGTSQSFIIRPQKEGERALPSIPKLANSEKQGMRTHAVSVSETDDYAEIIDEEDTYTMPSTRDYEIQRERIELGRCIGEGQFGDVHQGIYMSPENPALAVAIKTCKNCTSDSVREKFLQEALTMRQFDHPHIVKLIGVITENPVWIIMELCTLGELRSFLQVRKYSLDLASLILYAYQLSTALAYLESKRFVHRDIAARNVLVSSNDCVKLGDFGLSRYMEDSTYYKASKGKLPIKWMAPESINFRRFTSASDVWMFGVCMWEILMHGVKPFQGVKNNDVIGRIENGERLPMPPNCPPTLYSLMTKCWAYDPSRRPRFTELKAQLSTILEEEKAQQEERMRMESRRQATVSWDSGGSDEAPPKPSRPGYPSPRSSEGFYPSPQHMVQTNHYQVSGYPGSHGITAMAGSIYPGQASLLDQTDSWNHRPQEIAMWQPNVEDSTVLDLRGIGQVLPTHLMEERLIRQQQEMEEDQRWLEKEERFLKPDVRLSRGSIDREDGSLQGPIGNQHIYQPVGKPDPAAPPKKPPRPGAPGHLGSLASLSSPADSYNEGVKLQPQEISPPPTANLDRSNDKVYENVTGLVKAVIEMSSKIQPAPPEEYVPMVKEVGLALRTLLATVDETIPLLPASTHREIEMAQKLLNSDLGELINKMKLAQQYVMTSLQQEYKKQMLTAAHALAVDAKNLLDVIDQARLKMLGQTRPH
Description: Flag-His-TEV-FAK1 was prepared in-house. Full length Human FAK was expressed using baculovirus in Sf9 cells with N-terminal FLAG-6×His tags followed by a TEV cleavage site (FLAG-6×His-TEV-huFAK). […] To measure inhibitors of FAK, compounds were first prepared as a 100× stock in 100% DMSO. […] After incubating for 120 minutes at room temperature, the reaction is quenched by adding 5 uL of 20 mM EDTA and 5nMEu-Anti-pTyr antibody in 1× LANCE detection buffer.

T1 sequence (Q05397 whole entry): as above

| Molecule | IC50 (GST-tagged FAK) [nM] | IC50 [1] [nM] | also measured |
| --- | --- | --- | --- |
| 2-({5-Chloro-2-[(1,3-dimethyl-1H-pyrazol-4-yl)amino]-4-pyridinyl}amino)-N-methylbenzamide [Example 27] | – | – | Assay 1 FAK TRF PXC50 (GST-tagged FAK): 8.7; Assay 2 FAK H 31284A TRF PXC50 [1]: 8.1 |
| 2-({5-Chloro-2-[(1-ethyl-1H-pyrazol-5-yl)amino]-4-pyridinyl}amino)-4,5-difluoro-N-methylbenzamide [Example 10] | – | – | Assay 1 FAK TRF PXC50 (GST-tagged FAK): 9.1; Assay 2 FAK H 31284A TRF PXC50 [1]: 8 |
| 2-({5-Chloro-2-[(1-ethyl-1H-pyrazol-5-yl)amino]-4-pyridinyl}amino)-N-ethylbenzamide [Example 44] | – | – | Assay 1 FAK TRF PXC50 (GST-tagged FAK): 8.2; Assay 2 FAK H 31284A TRF PXC50 [1]: 7.2 |
| CNC(=O)c1ccccc1Nc1cc(Nc2cc(-c3ccccc3)nn2C)ncc1Cl [Example 1, 2-[5-Chloro-2-(2-methyl-53-ylamino)-pyridin-4-ylamino]-N-methyl-benzamide] | 2 | 15.8 | – |
| CNC(=O)c1ccccc1Nc1cc(Nc2ccnn2C)ncc1Cl [Example 2, 2-({5-Chloro-2-[(1-methyl-1H-pyrazol-5-yl)amino]-4-pyridinyl}amino)-N-methylbenzamide] | 1.58 | 10 | – |
| CCn1nccc1Nc1cc(Nc2ccccc2C(=O)NC)c(Cl)cn1 [Example 3, 2-({5-Chloro-2-[(1-ethyl-1H-pyrazol-5-yl)amino]-4-pyridinyl}amino)-N-methylbenzamide] | 0.631 | 5.01 | – |
| CNC(=O)c1ccccc1Nc1cc(Nc2cc(C)nn2C(C)C)ncc1Cl [Example 4, 2-[(5-Chloro-2-{[3-methyl-1-(1-methylethyl)-1H-pyrazol-5-yl]amino}-4-pyridinyl)amino]-N-methylbenzamide] | 1 | 6.31 | – |
| CNC(=O)c1ccccc1Nc1cc(Nc2cc(C)nn2C)ncc1Cl [Example 5, 2-({5-Chloro-2-[(1,3-dimethyl-1H-pyrazol-5-yl)amino]-4-pyridinyl}amino)-N-methylbenzamide] | 1 | 7.94 | – |
| CNC(=O)c1ccccc1Nc1cc(Nc2cc(C3CC3)nn2C)ncc1Cl [Example 6, 2-({5-Chloro-2-[(3-cyclopropyl-1-methyl-1H-pyrazol-5-yl)amino]-4-pyridinyl}amino)-N-methylbenzamide] | 1.26 | 5.01 | – |
| CNC(=O)c1cc(F)ccc1Nc1cc(Nc2cc(C)nn2C)ncc1Cl [Example 7, 2-({5-Chloro-2-[(1,3-dimethyl-1H-pyrazol-5-yl)amino]-4-pyridinyl}amino)-5-fluoro-N-methylbenzamide] | 0.794 | 10 | – |
| CNC(=O)c1cccc(F)c1Nc1cc(Nc2cc(C)nn2C)ncc1Cl [Example 8, 2-({5-Chloro-2-[(1,3-dimethyl-1H-pyrazol-5-yl)amino]-4-pyridinyl}amino)-3-fluoro-N-methylbenzamide] | 0.631 | 5.01 | – |
| CCn1nc(C(=O)O)cc1Nc1cc(Nc2ccccc2C(=O)NC)c(Cl)cn1 [Example 18, 5-{[5-Chloro-4-({2-[(methylamino)carbonyl]phenyl}amino)-2-pyridinyl]amino}-1-ethyl-1H-pyrazole-3-carboxylic acid] | 10 | – | – |
| CNC(=O)c1ccccc1Nc1cc(Nc2cc(C)nn2CCN(C)C)ncc1C(F)(F)F [Example 31, 2-{[2-({1-[2-(Dimethylamino)ethyl]-3-methyl-1H-pyrazol-5-yl}amino)-5-(trifluoromethyl)-4-pyridinyl]amino}-N-methylbenzamide] | 3.98 | – | – |
| CNC(=O)c1ccccc1Nc1cc(Nc2cc(C)nn2-c2ccccc2)ncc1C(F)(F)F [Example 33, N-Methyl-2-{[2-[(3-methyl-1-phenyl-1H-pyrazol-5-yl)amino]-5-(trifluoromethyl)-4-pyridinyl]amino}benzamide] | 0.398 | – | – |
| CNC(=O)c1ccccc1Nc1cc(Nc2cc(C)nn2CCO)ncc1C(F)(F)F [Example 34, 2-{[2-{[1-(2-hydroxyethyl)-3-methyl-1H-pyrazol-5-yl]amino}-5-(trifluoromethyl)-4-pyridinyl]amino}-N-methylbenzamide] | 0.501 | – | – |
| CCn1nc(C)cc1Nc1cc(Nc2cc(F)ccc2C(=O)NC)c(Cl)cn1 [Example 88, 2-({5-Chloro-2-[(1-ethyl-3-methyl-1H-pyrazol-5-yl)amino]-4-pyridinyl}amino)-4-fluoro-N-methylbenzamide] | – | 2.51 | – |
| CNC(=O)c1cccc(F)c1Nc1cc(Nc2cc(CCO)nn2C)ncc1Cl [Example 89, 2-[(5-Chloro-2-{[3-(2-hydroxyethyl)-1-methyl-1H-pyrazol-5-yl]amino}-4-pyridinyl)amino]-3-fluoro-N-methylbenzamide] | – | 10 | – |
| CCn1nc(CCO)cc1Nc1cc(Nc2c(F)cccc2C(=O)NC)c(Cl)cn1 [Example 90, 2-[(5-Chloro-2-{[1-ethyl-3-(2-hydroxyethyl)-1H-pyrazol-5-yl]amino}-4-pyridinyl)amino]-3-fluoro-N-methylbenzamide] | – | 10 | – |
| CNC(=O)c1cccc(F)c1Nc1cc(Nc2cc(CN(C)C)nn2C)ncc1Cl [Example 91, 2-{[5-Chloro-2-({3-[(dimethylamino)methyl]-1-methyl-1H-pyrazol-5-yl}amino)-4-pyridinyl]amino}-3-fluoro-N-methylbenzamide] | – | 251 | – |
| CCn1nc(CN(C)C)cc1Nc1cc(Nc2c(F)cccc2C(=O)NC)c(Cl)cn1 [Example 92, 2-{[5-Chloro-2-({3-[(dimethylamino)methyl]-1-ethyl-1H-pyrazol-5-yl}amino)-4-pyridinyl]amino}-3-fluoro-N-methylbenzamide] | – | 501 | – |
| [2H]C([2H])(O)c1cc(Nc2cc(Nc3c(F)cccc3C(=O)NC)c(Cl)cn2)n(C)n1 [Example 93, 2-[(5-Chloro-2-{[3-(hydroxymethyl)-1-methyl-1H-pyrazol-5-yl]amino}-4-pyridinyl)amino]-3-fluoro-N-methylbenzamide-d2] | – | 10 | – |
| [2H]C([2H])(O)c1cc(Nc2cc(Nc3c(F)cccc3C(=O)NC)c(Cl)cn2)n(CC)n1 [Example 94, 2-[(5-Chloro-2-{[1-ethyl-3-(hydroxymethyl)-1H-pyrazol-5-yl]amino}-4-pyridinyl)amino]-3-fluoro-N-methylbenzamide-d2] | – | 3.98 | – |

Second part, led by results:

| IC50 (GST-tagged FAK) [nM] | IC50 [1] [nM] | Molecule | also measured |
| --- | --- | --- | --- |
| – | 1.58 | CCn1nc(C)cc1Nc1cc(Nc2c(F)cccc2C(=O)NOC)c(Cl)cn1 [Example 95a, 2-({5-Chloro-2-[(1-ethyl-3-methyl-1H-pyrazol-5-yl)amino]-4-pyridinyl}amino)-3-fluoro-N-(methyloxy)benzamide] | – |
| – | 2 | CONC(=O)c1cccc(F)c1Nc1cc(Nc2cc(C)nn2C)ncc1Cl [Example 95b, 2-({5-Chloro-2-[(1,3-dimethyl-1H-pyrazol-5-yl)amino]-4-pyridinyl}amino)-3-fluoro-N-(methyloxy)benzamide] | – |
| – | 12.6 | CCn1nc(CO)cc1Nc1cc(Nc2c(F)cccc2C(=O)NOC)c(Cl)cn1 [Example 95c, 2-[(5-Chloro-2-{[1-ethyl-3-(hydroxymethyl) 1H-pyrazol-5-yl]amino}-4-pyridinyl)amino]-3-fluoro-N-(methyloxy)benzamide] | – |
| – | 20 | CONC(=O)c1cccc(F)c1Nc1cc(Nc2cc(CO)nn2C)ncc1Cl [Example 95d, 2-[(5-Chloro-2-{[3-(hydroxymethyl)-1-methyl-1H-pyrazol-5-yl]amino}-4-pyridinyl)amino]-3-fluoro-N-(methyloxy)benzamide] | – |
| – | 158 | CCn1nc(CN(C)C)cc1Nc1cc(Nc2c(F)cccc2C(=O)NOC)c(Cl)cn1 [Example 95e, 2-{[5-Chloro-2-({3-[(dimethylamino)methyl]-1-ethyl-1H-pyrazol-5-yl}amino)-4-pyridinyl]amino}-3-fluoro-N-(methyloxy)benzamide] | – |
| – | 2 | CONC(=O)c1cccc(F)c1Nc1cc(Nc2cnn(C)c2C)ncc1Cl [Example 95f, 2-({5-Chloro-2-[(1,5-dimethyl-1H-pyrazol-4-yl)amino]-4-pyridinyl}amino)-3-fluoro-N-(methyloxy)benzamide] | – |
| – | 20000 | Cc1cc(Nc2cc(Nc3ccc(F)cc3C(=O)N3CCCN3)c(Cl)cn2)n(C(C)C)n1 [Example 96a, 5-Chloro-N^4-[4-fluoro-2-(1-pyrazolidinylcarbonyl)phenyl]-N^2-[3-methyl-1-(1-methylethyl)-1H-pyrazol-5-yl]-2,4-pyridinediamine] | – |
| – | 2000 | Cc1cc(Nc2cc(Nc3ccc(F)cc3C(=O)N3CCCN3C)c(Cl)cn2)n(C(C)C)n1 [Example 96b, 5-Chloro-N^4-{4-fluoro-2-[(2-methyl-1-pyrazolidinyl)carbonyl]phenyl}-N^2-[3-methyl-1-(1-methylethyl)-1H-pyrazol-5-yl]-2,4-pyridinediamine] | – |
